Experimental data taken from patent US20100261666A1, “COMPOSITIONS AND METHODS FOR THE TREATMENT OF MYOCARDIAL DYSFUNCTION ASSOCIATED WITH SIRS OR SEPSIS” (THE BOARD OF TRUSTEES OF THE UNIVERSITY OF ILLINOIS, priority 2009, published 2010).
Where two headings read alike, the source gives them in different places.

Columns and labels:
[1] = tested on: TNF-α; experiment: Real time PCR, left ventricular TNF-α mRNA expression; assay type: in vivo, rat; details: LPS infusion
Protocol: Total RNA was isolated from left ventricular tissue using the SV Total Isolation System (Promega Corp., Madison, Wis.). Isolation was performed according to manufacturer instructions and followed by DNAse treatment to eliminate residual genomic DNA contamination. RNA integrity was determined by loading 1.0 μg of total RNA isolate from each sample onto a 1.0% agarose gel and staining with ethidium bromide to visualize the 18 and 28s RNA bands. The amount of RNA recovered was determined using the Ribogreen RNA Quantification Kit (Molecular Probes, Eugene, Oreg.). […]
Specific primer sequences, GenBank accession numbers, Sequence Identifiers, and product sizes are disclosed in Table 5. […] For real-time PCRs, SYBR PCR Master Mix (Bio-Rad Laboratories, Hercules, Calif.) was used, and thermocycling and fluorescence detection was performed using a Stratagene Mx3000p real-time PCR machine.
After confirmation of primer efficiency and specificity, the concentrations of purified products generated by standard PCR were determined using Molecular Probe's Picogreen DNA quantification kit, and PCR products were serially diluted to obtain standards containing 10^1, 10^2, 10^3, 10^4, 10^5, and 10^6 copies of synthetic template. […]

[2] = molecular target: ADA (Homo sapiens, UniProt P00813); details: cited from earlier work
[3] = molecular target: adenosine deaminase (Rattus norvegicus, UniProt Q920P6); details: LV tissue homogenates at 150 minute time point
Protocol: Assays were performed according to the manufacturer's instructions.

Sequence of adenosine deaminase (Q920P6 whole entry): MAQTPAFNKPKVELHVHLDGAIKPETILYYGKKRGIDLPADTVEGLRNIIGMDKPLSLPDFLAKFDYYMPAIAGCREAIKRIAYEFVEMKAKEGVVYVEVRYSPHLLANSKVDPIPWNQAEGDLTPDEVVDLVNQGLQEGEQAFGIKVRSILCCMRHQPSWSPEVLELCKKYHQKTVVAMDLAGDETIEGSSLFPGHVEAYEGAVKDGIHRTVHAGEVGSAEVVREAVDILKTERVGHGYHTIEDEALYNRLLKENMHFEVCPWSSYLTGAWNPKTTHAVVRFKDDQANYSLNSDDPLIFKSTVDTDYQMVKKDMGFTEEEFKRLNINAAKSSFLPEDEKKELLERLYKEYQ
Sequence of ADA (P00813 whole entry, species assumed): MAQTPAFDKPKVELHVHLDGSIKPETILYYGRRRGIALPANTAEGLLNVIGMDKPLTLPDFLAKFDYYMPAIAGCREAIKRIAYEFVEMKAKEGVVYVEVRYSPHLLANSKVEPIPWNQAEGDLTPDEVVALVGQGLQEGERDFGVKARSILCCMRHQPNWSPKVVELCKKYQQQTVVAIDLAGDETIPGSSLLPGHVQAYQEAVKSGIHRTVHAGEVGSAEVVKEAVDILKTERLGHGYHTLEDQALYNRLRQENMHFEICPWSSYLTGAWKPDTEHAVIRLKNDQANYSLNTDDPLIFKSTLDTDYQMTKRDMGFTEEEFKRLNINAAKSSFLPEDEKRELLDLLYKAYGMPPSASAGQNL

| Compound | left ventricular TNF-α mRNA expression compared to LPS hearts [1] | binding between dCF and ADA [2] | LV ADA activity compared to CON and LPS hearts ([3]; LPS infusion) | LV ADA activity compared to CON and LPS hearts ([3]; vehicle infusion) |
| --- | --- | --- | --- | --- |
| Oc1ncnc2[nH]ncc12 [ALO, allopurinol] | significantly lower | – | – | – |
| OC[C@H]1O[C@@H](n2cnc3c2N=CNCC3O)CC1O (stereo in doubt) [dCF, 2′-deoxycoformycin] | did not significantly alter | effectively irreversible | significant decrease | significant decrease |
